According to US6818203B2, “Use of perfluoroalkyl-containing metal complexes as contrast media in MR-imaging for visualization of plaque, tumors and necroses” (Schering Aktiengesellschaft, priority 2000, dated 2004):

Experiment: organ distribution (including tumor and lymph node concentration) after intravenous administration in prostate cancer-bearing rats
Type: in vivo
Conditions: 200 μmol Gd/kg i.v.
Description: After intravenous administration of 200 μmol of total gadolinium/kg of body weight of a polar Gd-chelate with perfluorinated side chains (metal complex XIV) in rats (Cop-inbreeding with Dunning R3327 MAT-Lu prostate cancer i.m.-implanted 12 days earlier), the metal content in various organs, in tumors, as well as in the lymph nodes (pooled as mesenteric and peripheral lymph nodes) was determined 10 minutes, 1 hour and 24 hours after administration (MW±SD, n=3).

[1] = Mesentric lymph nodes, 10 min p.i.
[2] = Mesentric lymph nodes, 1 h p.i.
[3] = Mesentric lymph nodes, 24 h p.i.
[4] = Peripheral lymph nodes, 10 min p.i.
[5] = Peripheral lymph nodes, 1 h p.i.
[6] = Peripheral lymph nodes, 24 h p.i.
[7] = The remainder of the body, 10 min p.i.
[8] = The remainder of the body, 1 h p.i.
[9] = The remainder of the body, 24 h p.i.

With CC(C(=O)NCC(=O)NCC(=O)N1CCN(C(=O)CNC(=O)CNC(=O)C(C)N2CCN(CC(=O)[O-])CCN(CC(=O)[O-])CCN(CC(=O)[O-])CC2)CCN(C(=O)COCCC(F)(F)C(F)(F)C(F)(F)C(F)(F)C(F)(F)C(F)(F)C(F)(F)C(F)(F)F)CCN(C(=O)CNC(=O)CNC(=O)C(C)N2CCN(CC(=O)[O-])CCN(CC(=O)[O-])CCN(CC(=O)[O-])CC2)CC1)N1CCN(CC(=O)[O-])CCN(CC(=O)[O-])CCN(CC(=O)[O-])CC1.[Gd+3].[Gd+3].[Gd+3] (centres unmarked) [metal complex XIV, 1,4,7-Tris{1,4,7-tris(N-(carboxylatomethyl)-10-[N-1-methyl-3,6-diaza-2,5,8-trioxooctane-1,8-diyl]-1,4,7,10-tetraazacyclododecane, Gdcomplex}-10-N-2H,2H,4H,4H,5H,5H-3-oxa-perfluoro-tridecanoyl]-1,4,7,10-tetraazacyclo-dodecane, Gd complex] the Gd concentration (Lung, 1 h p.i.) was 415 ± 39 µmol/L, the “% Dose” value (Lung, 24 h p.i.) was 0.09 ± 0.01 % Dose and the Gd concentration (Lung, 24 h p.i.) was 44 ± 4 µmol/L. For the same compound, the “% Dose” value [1] was 0.08 ± 0.01 % Dose, the Gd concentration [1] was 291 ± 29 µmol/L and the “% Dose” value [2] was 0.05 ± 0.01 % Dose. For the same compound, the Gd concentration [2] was 179 ± 16 µmol/L, the “% Dose” value [3] was 0.02 ± 0.00 % Dose and the Gd concentration [3] was 50 ± 6 µmol/L. The “% Dose” value (Muscle, 10 min p.i.) was 0.06 ± 0.02 % Dose, the Gd concentration (Muscle, 10 min p.i.) was 93 ± 5 µmol/L and the “% Dose” value (Muscle, 1 h p.i.) was 0.04 ± 0.00 % Dose. For the same compound, the Gd concentration (Muscle, 1 h p.i.) was 56 ± 3 µmol/L, the “% Dose” value (Muscle, 24 h p.i.) was 0.00 ± 0.00 % Dose and the Gd concentration (Muscle, 24 h p.i.) was 8 ± 1 µmol/L. For the same compound, the “% Dose” value (Pancreas, 10 min p.i.) was 0.35 ± 0.02 % Dose, the Gd concentration (Pancreas, 10 min p.i.) was 191 ± 14 µmol/L and the “% Dose” value (Pancreas, 1 h p.i.) was 0.21 ± 0.05 % Dose. For the same compound, the Gd concentration (Pancreas, 1 h p.i.) was 139 ± 26 µmol/L, the “% Dose” value (Pancreas, 24 h p.i.) was 0.03 ± 0.01 % Dose and the Gd concentration (Pancreas, 24 h p.i.) was 25 ± 1 µmol/L. For the same compound, the “% Dose” value [4] was 0.13 ± 0.00 % Dose, the Gd concentration [4] was 284 ± 19 µmol/L and the “% Dose” value [5] was 0.14 ± 0.02 % Dose. The Gd concentration [5] was 254 ± 14 µmol/L, the “% Dose” value [6] was 0.02 ± 0.00 % Dose and the Gd concentration [6] was 51 ± 5 µmol/L. For the same compound, the “% Dose” value (Spleen, 10 min p.i.) was 0.13 ± 0.01 % Dose, the Gd concentration (Spleen, 10 min p.i.) was 200 ± 13 µmol/L and the “% Dose” value (Spleen, 1 h p.i.) was 0.08 ± 0.01 % Dose. The Gd concentration (Spleen, 1 h p.i.) was 123 ± 10 µmol/L, the “% Dose” value (Spleen, 24 h p.i.) was 0.06 ± 0.00 % Dose and the Gd concentration (Spleen, 24 h p.i.) was 69 ± 5 µmol/L. The “% Dose” value (Stomach (empty), 10 min p.i.) was 0.56 ± 0.07 % Dose, the Gd concentration (Stomach (empty), 10 min p.i.) was 244 ± 17 µmol/L and the “% Dose” value (Stomach (empty), 1 h p.i.) was 0.40 ± 0.05 % Dose. The Gd concentration (Stomach (empty), 1 h p.i.) was 165 ± 21 µmol/L, the “% Dose” value (Stomach (empty), 24 h p.i.) was 0.05 ± 0.00 % Dose and the Gd concentration (Stomach (empty), 24 h p.i.) was 19 ± 2 µmol/L. For the same compound, the “% Dose” value (Sum of the organs, 10 min p.i.) was 80.06 ± 2.84 % Dose, the “% Dose” value (Sum of the organs, 1 h p.i.) was 72.94 ± 5.83 % Dose and the “% Dose” value (Sum of the organs, 24 h p.i.) was 9.21 ± 0.27 % Dose. For the same compound, the “% Dose” value [7] was 70.71 ± 2.74 % Dose, the Gd concentration [7] was 419 ± 27 µmol/L and the “% Dose” value [8] was 64.27 ± 5.50 % Dose. For the same compound, the Gd concentration [8] was 392 ± 25 µmol/L, the “% Dose” value [9] was 6.81 ± 0.16 % Dose and the Gd concentration [9] was 42 ± 0 µmol/L. The “% Dose” value (Tumor, 10 min p.i.) was 0.25 ± 0.05 % Dose, the Gd concentration (Tumor, 10 min p.i.) was 246 ± 25 µmol/L and the “% Dose” value (Tumor, 1 h p.i.) was 0.37 ± 0.14 % Dose. The Gd concentration (Tumor, 1 h p.i.) was 266 ± 87 µmol/L, the “% Dose” value (Tumor, 24 h p.i.) was 0.04 ± 0.01 % Dose and the Gd concentration (Tumor, 24 h p.i.) was 56 ± 4 µmol/L. The “% Dose” value (Urine 0-24 h) was 79.86 ± 3.13 % Dose and the Gd concentration (Urine 0-24 h) was 619 ± 19 µmol/L.
